Laboratory results: patent US20120148638A1, “Steroid Solavates” (BREATH LIMITED, priority 2009, published 2012)

How the values were obtained:
[1] = Dry Sympatec PSD analysis (particle size distribution); assay type: physicochemical; conditions: after isolation
Text: Particle size or particle diameter as used herein can be suitably determined by laser diffraction based methods, for example as described in ISO Standard 13320-1. Laser diffraction particle sizing apparatus such as the Malvern Mastersizer 2000™ can be used.

[2] = Effect of humidity on prolonged storage: 20% relative humidity for 48 hours; DVS, DSC, TGA, PSD, SEM; assay type: physicochemical; conditions: for DVS mass plot, change of mass during storage: 20% RH, 48 hours; for Particle Size, cumulative distribution Q3 X10, post-storage sample / Particle Size, cumulative distribution Q3 X50, post-storage sample / Particle Size, cumulative distribution Q3 X90, post-storage sample: dry Sympatec PSD
Description: In order to evaluate the effect of humidity on prolonged storage, processed BDP heptane solvate was subjected to 20% relative humidity (RH) for 48 hours.
The sample recovered after storage was analysed by DSC, TGA, PSD and SEM.
In order to evaluate the effect of humidity on prolonged storage processed BDP hydrate was subjected to 20% relative humidity (RH) for 48 hours.

SMILES | Particle Size, cumulative distribution Q3 X10 [1] [μ] | Particle Size, cumulative distribution Q3 X50 [1] [μ] | Particle Size, cumulative distribution Q3 X90 [1] [μ] | Particle size distribution, result in words [1] | DVS mass plot, change of mass during storage ([2]; listed as processed BDP heptane) | Particle Size, cumulative distribution Q3 X10, post-storage sample ([2]; after 20% RH for 48 hours) [μ] | Particle Size, cumulative distribution Q3 X50, post-storage sample ([2]; after 20% RH for 48 hours) [μ] | Particle Size, cumulative distribution Q3 X90, post-storage sample ([2]; after 20% RH for 48 hours) [μ] | DSC trace of stored sample, thermal behaviour post-humidity treatment ([2]; after 20% RH for 48 hours, listed as BDP heptane solvate) | Time to steady state of sample mass (DVS) ([2]; 20% RH storage) | DVS mass plot, change of mass during storage [2] | DSC trace of stored sample, thermal behaviour post-humidity treatment ([2]; after 20% RH for 48 hours) | PSD variation of particle size after storage ([2]; after 20% RH for 48 hours)
CCC(=O)OCC(=O)[C@@]1(OC(=O)CC)[C@@H](C)C[C@H]2[C@@H]3CCC4=CC(=O)C=C[C@]4(C)[C@@]3(Cl)[C@@H](O)C[C@@]21C.O [Comparative Example 1, beclomethasone diproprionate, reference compound] | 0.84 | 3.58 | 8.76 | mostly ˜4 μm particles alongside larger clusters or agglomerates larger than 20 μm | – | – | – | – | – | – | – | – | –
CCC(=O)OCC(=O)[C@@]1(OC(=O)CC)[C@@H](C)C[C@H]2[C@@H]3CCC4=CC(=O)C=C[C@]4(C)[C@@]3(Cl)[C@@H](O)C[C@@]21C.O [Example 1, beclomethasone diproprionate] | 0.69 | 2.41 | 4.67 | within the inhalation range | maintained full stability in terms of change of mass | 0.68 | 2.44 | 5.29 | no variation in the thermal behaviour | – | – | – | –
CCC(=O)OCC(=O)[C@@]1(OC(=O)CC)[C@@H](C)C[C@H]2[C@@H]3CCC4=CC(=O)C=C[C@]4(C)[C@@]3(Cl)[C@@H](O)C[C@@]21C.O [Comparative Example 2, beclomethasone diproprionate, reference compound] | 1.78 | 8.10 | 15.10 | – | – | – | – | – | – | – | – | – | –
CCC(=O)OCC(=O)[C@@]1(OC(=O)CC)[C@@H](C)C[C@H]2[C@@H]3CCC4=CC(=O)C=C[C@]4(C)[C@@]3(Cl)[C@@H](O)C[C@@]21C.O [Example 3, beclomethasone diproprionate] | 0.51 | 1.35 | 3.17 | well within the inhalation range | – | 0.51 | 1.37 | 2.95 | – | about 1500 minutes | initially underwent considerable weight loss due to partial dehydration | no variation in the thermal behavior | no significant variation of particle size
